In PMC10778980, “Profiling Novel Quinuclidine-Based Derivatives as Potential Anticholinesterase Drugs: Enzyme Inhibition and Effects on Cell Viability” (International Journal of Molecular Sciences, 2023):
“Also recorded” adds a separate entry of the source. Like-named read-outs stand apart in the source and are kept apart here.

Experiments:
[1] = test system: HepG2 cells; test: Cytotoxicity assay (MTS) on HepG2; format: cell-based; settings: Homo sapiens
Description: (§1) SH-SY5Y cells were grown in DMEM F12 (Sigma-Aldrich, St. Louis, MO, USA) supplemented with 15% (v/v) fetal bovine serum (FBS), 2 mM glutamine, and 1% (v/v) non-essential amino acids (NEAA). HepG2 cells were grown in EMEM supplemented with 10% (v/v) FBS, 2 mM glutamine, and 1% (v/v) non-essential amino acids NEAA. All media and supplements were purchased from Sigma-Aldrich, Steinheim, Germany.
(§2) The procedure followed a previously described protocol.

[2] = test system: HepG2 cells; test: Cell membrane integrity (LDH release) on HepG2; format: cell-based, human; settings: HepG2, 4 h exposure, 12.5–200 µM
Description: (§3) Human neuroblastoma SH-SY5Y (ECACC 94030304) and human hepatocyte carcinoma HepG2 (ECACC 85011430) were used to evaluate in vitro dose- and time-dependent different cell effects. The SH-SY5Y cell line was selected as it represents a well-established model for studying neuronal cells, while HepG2 hepatocytes represent a liver model as a major organ participating in the metabolism of diverse compounds [31, 61, 62]. SH-SY5Y cells were grown in DMEM F12 (Sigma-Aldrich, St. Louis, MO, USA) supplemented with 15% (v/v) fetal bovine serum (FBS), 2 mM glutamine, and 1% (v/v) non-essential amino acids (NEAA). HepG2 cells were grown in EMEM supplemented with 10% (v/v) FBS, 2 mM glutamine, and 1% (v/v) non-essential amino acids NEAA. All media and supplements were purchased from Sigma-Aldrich, Steinheim, Germany.
(§4) Cell membrane integrity was determined after 4 h exposure to derivatives 3–5 and 10–12 by measuring the release of the intracellular lactate dehydrogenase (LDH), and the procedure followed a previously described protocol using The CytoTox-ONE™ Homogeneous Membrane Integrity Assay (Promega, Madison, WI, USA). Triton X-100 at a final concentration of 0.18% (v/v) (stock of 9% in water; Sigma-Aldrich, Steinheim, Germany) was used as a positive control to determine the maximal LDH release. Data were taken from at least two independent experiments (each treatment performed in duplicate) and plotted as a percentage of LDH release compared to the determined maximal LDH release, according to the manufacturer’s calculation protocol.

[3] = test system: SH-SY5Y cells; test: Cell membrane integrity (LDH release) on SH-SY5Y; format: cell-based, human; settings: 4 h exposure, 12.5–200 µM
Description: as §3, §4

[4] = molecular target: T1, human AChE (Homo sapiens, UniProt P22303); test: Reversible inhibition of AChE (Ellman's procedure, Hunter–Downs evaluation); format: biochemical; settings: for Ki: Ki ± standard error, 0.1, 0.2, 0.35 and 0.5 mM substrate ATCh, 25 °C, pH 7.4; for Ki (AChE)/Ki (BChE): selectivity ratio
T1 construct: The sources of human AChE and BChE were native erythrocytes and plasma, respectively; from tissue; host or cells: human erythrocytes from venous blood of a healthy volunteer
T1 sequence (P22303 32-617 isoform P22303-2 limits assumed): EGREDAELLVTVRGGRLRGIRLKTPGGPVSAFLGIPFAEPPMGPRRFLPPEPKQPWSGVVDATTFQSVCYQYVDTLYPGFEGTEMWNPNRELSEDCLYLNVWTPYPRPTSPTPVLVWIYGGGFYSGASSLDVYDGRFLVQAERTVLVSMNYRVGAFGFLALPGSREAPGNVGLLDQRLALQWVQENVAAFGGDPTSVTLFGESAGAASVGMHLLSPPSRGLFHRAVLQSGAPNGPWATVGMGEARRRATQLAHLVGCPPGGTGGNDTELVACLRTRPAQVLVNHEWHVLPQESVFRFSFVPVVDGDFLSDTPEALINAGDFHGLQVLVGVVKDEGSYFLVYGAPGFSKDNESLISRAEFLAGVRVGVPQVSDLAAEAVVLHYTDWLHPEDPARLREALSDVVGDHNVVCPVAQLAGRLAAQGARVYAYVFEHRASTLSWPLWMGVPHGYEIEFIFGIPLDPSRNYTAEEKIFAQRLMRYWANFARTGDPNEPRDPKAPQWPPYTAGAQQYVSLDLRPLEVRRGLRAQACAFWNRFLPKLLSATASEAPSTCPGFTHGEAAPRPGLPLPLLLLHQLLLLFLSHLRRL
Text: (§5) Cholinesterase substrate acetylthiocholine (ATCh) and the thiol reagent 5,5′-dithiobis(2-nitrobenzoic acid) (DTNB) for the enzyme activity measurement were purchased from Sigma-Aldrich (St. Louis, MO, USA). The sources of human AChE and BChE were native erythrocytes and plasma, respectively, obtained from the blood of a healthy volunteer and in accordance with the approval of the Ethics Committee of the Institute for Medical Research and Occupational Health (approval number: 100-21/23-6). Erythrocytes and plasma were isolated from the whole blood and prepared according to a previously published procedure. Namely, venous blood was collected into a heparinized tube and centrifuged (at 4 °C, 20 min on 2500 rpm, Eppendorf centrifuge 5702R) to separate plasma from the erythrocytes. Plasma was removed and used as a source of BChE, while erythrocytes were washed twice with the 0.1 M sodium phosphate buffer, pH 7.4, in a volume corresponding to the initial volume of the whole blood. Both plasma and erythrocytes were frozen at −20 °C until use. Quinuclidine compounds were dissolved in dH2O as 10 or 100 mM; exceptionally, 3-hydroxyimino compounds with longer chains (C12−C16) were dissolved in DMSO as 100 mM solutions. Stock solutions were kept at 4 °C until use. Further dilutions were made in distilled water.
(§6) The reversible inhibition experiments followed a previously published procedure. Namely, the enzyme activity was measured in the presence of a wide range of quinuclidine compound concentrations and in the substrate range from 0.1 to 0.5 mM to confirm the type of compound binding. The activity was assayed following the Ellman’s procedure, with the modification in the wavelength used for detection of the TNB anion in the case of AChE activity measurement due to the interference of the hemoglobin, and according to Worek et al.. The assay was performed in 96-well plates on an Infinite M200PRO plate reader (Tecan Austria GmbH, Salzburg, Austria) at 25 °C. Each concentration was tested in triplicate or quadruplicate on each plate. The inhibition mixture contained 0.1 M sodium phosphate buffer, pH 7.4, enzyme (AChE or BChE), quinuclidine compound (0.2–400 μM final), DTNB (0.3 mM final), and ATCh (from 0.1 to 0.5 mM final) to start the reaction. The increase in absorbance was read at 436 nm for AChE and at 412 nm for BChE. The measured activity in the presence of compounds was corrected for the non-enzymatic hydrolysis of substrate ATCh, if detected. The reversible enzyme–quinuclidine complex dissociation constants (the inhibition constants) Ki were evaluated from the effect of the substrate concentration on the degree of inhibition according to the Hunter–Downs equation as described previously, taking into account only quinuclidine concentrations where 20–80% inhibition of the activity was observed.

[5] = molecular target: T2, human BChE (Homo sapiens, UniProt P06276); test: biochemical; settings: Ki ± standard error; 0.1, 0.2, 0.35 and 0.5 mM substrate ATCh; 25 °C, pH 7.4; read-out: Ki BChE
T2 construct: Plasma was removed and used as a source of BChE; from tissue; host or cells: human blood plasma from a healthy volunteer
T2 sequence (P06276 29-602): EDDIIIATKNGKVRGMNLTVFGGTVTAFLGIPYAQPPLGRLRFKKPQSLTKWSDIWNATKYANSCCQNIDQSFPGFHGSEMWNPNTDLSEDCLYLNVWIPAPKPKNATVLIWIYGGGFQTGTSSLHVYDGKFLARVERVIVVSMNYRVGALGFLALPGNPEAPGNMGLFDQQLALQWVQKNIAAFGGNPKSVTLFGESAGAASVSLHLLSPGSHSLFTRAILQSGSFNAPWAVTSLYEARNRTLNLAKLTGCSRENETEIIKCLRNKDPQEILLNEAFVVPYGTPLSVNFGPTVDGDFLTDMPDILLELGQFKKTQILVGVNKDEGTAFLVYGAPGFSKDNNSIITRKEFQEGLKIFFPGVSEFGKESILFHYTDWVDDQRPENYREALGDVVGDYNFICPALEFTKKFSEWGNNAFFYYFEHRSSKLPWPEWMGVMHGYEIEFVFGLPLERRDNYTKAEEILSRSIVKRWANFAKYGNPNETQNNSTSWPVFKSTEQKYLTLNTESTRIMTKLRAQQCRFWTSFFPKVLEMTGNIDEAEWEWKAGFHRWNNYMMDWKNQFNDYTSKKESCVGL
Text: as §5, §6

[6] = test system: SH-SY5Y cells; test: Mitochondrial membrane potential (TMRE assay) on SH-SY5Y; format: cell-based, human; settings: 4 h exposure, LOAEL concentrations
Description: as §3
(§7) Mitochondrial membrane potential (ΔΨm) was determined using a cell-permeable, potential-sensitive cationic dye, tetramethylrhodamine ethyl ester perchlorate (TMRE, Cell Signaling Technology Europe, Leiden, The Netherlands). Cells were exposed for 4 h to derivatives 3–5 and 10–12. The procedure followed a previously described protocol. A concentration of 50 µM carbonyl cyanide 3-chlorophenylhydrazone (CCCP, Cell Signaling Technology Europe, Leiden, The Netherlands) was used as a positive control. Data were evaluated from at least three independent experiments (performed in duplicate) and presented as a normalized signal to the untreated control, according to the manufacturer’s calculation protocol.

[7] = test system: HepG2 cells; test: Mitochondrial membrane potential (TMRE assay) on HepG2; format: cell-based, human; settings: HepG2, 4 h exposure, LOAEL concentrations
Description: as §3, §7

[8] = test system: caspase 8; test: Caspase 8 activity in SH-SY5Y (multiplex activity assay kit); format: cell-based, human; settings: 4 h treatment, LOAEL concentrations
Description: as §1
Caspases (cysteine-aspartic proteases) caspase 3, caspase 8, and caspase 9 were simultaneously analyzed in cells using specific substrate and fluorogenic indicators from the Caspase-3, Caspase-8, and Caspase-9 Multiplex Activity Assay Kit (Abcam, Cambridge, UK). […] The procedure followed a previously described protocol. […] Data were evaluated from at least three independent experiments (performed in duplicate or triplicate), according to the manufacturer’s assay kit calculation protocol, and presented as a normalized signal to the untreated control.

[9] = test system: SH-SY5Y cells; settings: cited from earlier work
[10] = test system: SH-SY5Y cells; test: Cytotoxicity assay (MTS) on SH-SY5Y; format: cell-based; settings: Homo sapiens
Description: as §1, §2

[11] = HepG2, read-out: IC50 ± SE HepG2 1 h, 1 h exposure
[12] = HepG2, 4 h exposure, read-out: IC50 ± SE HepG2 4 h
[13] = HepG2, 24 h exposure, read-out: IC50 ± SE HepG2 24 h
[14] = 24 h exposure, read-out: IC50 ± SE SH-SY5Y 24 h
[15] = 4 h exposure, read-out: IC50 ± SE SH-SY5Y 4 h
[16] = read-out: IC50 ± SE SH-SY5Y 1 h, 1 h exposure

SMILES: CCCCCCCCCCCC[N+]12CCC(CC1)/C(=N\O)C2 [Compound 10]
- IC50 [1, 11]: 218 ± 1 µM
- IC50 [1, 12]: 81 ± 1 µM
- IC50 [1, 13]: 15 ± 1 µM
- LDH release [2]: significant LDH release
- LDH release [3]: strongest effect; also recorded: significant LDH release
- Ki [4]: 14.3 ± 1.8 µM
- Ki (AChE)/Ki (BChE) [4]: 2.6
- Ki [5]: 5.4 ± 0.8 µM
- Mitochondrial membrane potential (ΔΨm) [6]: decrease in the mitochondrial membrane potential
- Mitochondrial membrane potential (ΔΨm) [7]: decrease in the mitochondrial membrane potential
- Caspase 8 activation [8]: significant activation
- IC50 [9, 14]: 147 ± 1 µM
- IC50 [10, 15]: 174 ± 1 µM
- IC50 [10, 16]: 208 ± 3 µM

SMILES: CCCCCCCCCCCCCC[N+]12CCC(CC1)/C(=N\O)C2 [Compound 11]
- IC50 [1, 11]: 37 ± 1 µM
- IC50 [1, 12]: 18 ± 1 µM
- IC50 [1, 13]: 11 ± 1 µM
- LDH release [2]: significant LDH release
- LDH release [3]: strongest effect; also recorded: significant LDH release
- Ki [4]: 7 ± 0.9 µM
- Ki (AChE)/Ki (BChE) [4]: 0.8
- Ki [5]: 8.8 ± 1 µM
- Mitochondrial membrane potential (ΔΨm) [6]: decrease in the mitochondrial membrane potential
- Mitochondrial membrane potential (ΔΨm) [7]: decrease in the mitochondrial membrane potential
- Caspase 8 activation [8]: significant activation
- IC50 [10, 15]: 83 ± 3 µM
- IC50 [10, 14]: 60 ± 1 µM
- IC50 [10, 16]: 125 ± 2 µM

SMILES: CCCCCCCCCCCCCCCC[N+]12CCC(CC1)/C(=N\O)C2 [Compound 12]
- IC50 [1, 11]: 40 ± 1 µM
- IC50 [1, 12]: 20 ± 1 µM
- IC50 [1, 13]: 7 ± 1 µM
- LDH release [2]: significant LDH release
- LDH release [3]: strongest effect; also recorded: significant LDH release
- Ki [4]: 19 ± 1.6 µM
- Ki (AChE)/Ki (BChE) [4]: 0.4
- Ki [5]: 48.6 ± 3.8 µM
- Mitochondrial membrane potential (ΔΨm) [6]: decrease in the mitochondrial membrane potential
- Mitochondrial membrane potential (ΔΨm) [7]: decrease in the mitochondrial membrane potential
- Caspase 8 activation [8]: significant activation
- IC50 [10, 15]: 78 ± 1 µM
- IC50 [10, 14]: 54 ± 1 µM
- IC50 [10, 16]: 89 ± 1 µM

SMILES: CN[C@@H]1C[C@H]2O[C@@](C)([C@@H]1OC)n1c3ccccc3c3c4c(c5c6ccccc6n2c5c31)C(=O)NC4 [SS, staurosporine]
- IC50 ([9]; 24 h exposure, controls, read-out: IC50 ± SE SH-SY5Y 24 h): 0.12 ± 0.01 µM
- IC50 ([9]; read-out: IC50 ± SE SH-SY5Y 1 h, 1 h exposure, controls): ≥ 4 µM
